This is an account of results in US20140329863A1 (priority 2011, published 2014).

Structures are written as SMILES. In brackets after ≈: the same amount, converted by molar mass. Where two headings read alike, the source gives them in different places. A value given as a limit tells only on which side of the number the result lay.

For data set [1], the system named is MDCK-MDR^1 cells (P-glycoprotein). The data set is described as follows: Bidirectional MDCK-MDR1 cell permeability. In kind it is in vitro ADME, canine. On the procedure:
MDCK-MDR^1 cells were grown to confluence for 5-10 days on 1-μm filters in 24-well plates {Hilgers, 1990}. Aliquots of DMSO stocks were diluted into Hank's balanced salt solution (HBSS), pH 7.4, containing […] to give 10-μM solute concentration. The solute containing donor solutions were transferred to either the apical or basolateral chamber of the permeability diffusion apparatus. Receiver solutions consisted of HBSS (pH 7.4) containing 25 mM HEPES+0.05% PS80. Sequential samples of transported solute were taken at 20-min intervals using an automated liquid handling platform. The concentration of transported solute during each sampling interval was determined by HPLC/UV/MS. Permeability coefficients were calculated for each sampling interval. The average and standard deviation from the intervals are reported. Mass balance in the system was ascertained by comparing the sum of total transported solute and remaining donor solute with the starting mass of solute and is expressed as a percentage of donor solute at time zero. […] In the event of mass balance less than 70%, the cell monolayers were extracted with ACN and analyzed for the solute of interest. Determinations were conducted in duplicate.

The test system of data set [2] is PrP^Sc in dividing ScN2a-cl3 cells. The class given is cell-based, mouse. The arrangement: Dividing ELISA pEC50 (μM) 1st Expt. / Dividing ELISA pEC50 (μM) 2nd Expt. / Dividing ELISA pEC50 (μM) 3rd Expt. / Dividing ELISA pEC50 (μM) Mean: unit not given here.
Data set [3] relates to PrP^Sc in nondividing ScN2a-cl3 cells. In kind it is cell-based, mouse. Particulars: read-out: Non-Dividing ELISA EC50 (μM) Mean (n = 3); ScN2a-c13 non-dividing cells; mean n = 3. Background: ELISA stands for enzyme-linked immunosorbent assay.
The conditions of data set [4]: […].
A further data set deals with N2a-cl3 cells. The data set is described as follows: cells. The settings on record: Mus musculus, N2a-cl3, read-out: Dividing Calcein EC50 (μM) Mean (n = 3).
The test system of the next data set is MDCK-MDR1 cells. The experiment in a line: Permeability in MDCK-MDR1 cells. The settings on record: MDR1-MDCK cell monolayers; for Permeability PA→B: apical to basal; for Permeability PB→A: basal to apical.
Data set [5] can be described thus: Hepatic microsomal stability, rat. The settings on record: […].
The subject of another data set is ScN2a-c13 cells. The data set is described as follows: cells. The class given is cell-based. Particulars: Mus musculus; N=3; read-out: EC50 by calcein for cell viability.
In data set [6] the test system is PrP^Sc in dividing ScN2a-c13 cells. The settings on record: read-out: EC50 (ELISA), reduction of PrP^Sc load; dividing ScN2a-c13 cells.
Assay in data set [7]: not given
This is another data set of the same source.

[8] abbreviates: ScN2a-cl3 dividing cells, 1st determination.
Where [9] appears, read: ScN2a-cl3 dividing cells, 2nd determination.
Setting [10] is: ScN2a-cl3 dividing cells, 3rd determination.
The mark [11] stands for this setting: ScN2a-cl3 dividing cells, mean of three determinations.
[12] abbreviates: read-out: Antiprion activity ScN2a-cl3 EC50, ScN2a-cl3 cells.
Setting [13] is: read-out: Dividing ELISA EC50 (μM) 1st Expt., ScN2a-cl3 dividing cells, 1st determination.
Setting [14] is: read-out: Dividing ELISA EC50 (μM) 2nd Expt., ScN2a-cl3 dividing cells, 2nd determination.
[15] abbreviates: read-out: Dividing ELISA EC50 (μM) 3rd Expt., ScN2a-cl3 dividing cells, 3rd determination.
The mark [16] stands for this setting: read-out: Dividing ELISA EC50 (μM) Mean, ScN2a-cl3 dividing cells, mean of three determinations.
Where [17] appears, read: pH 1.2, simulated gastric fluid.

One may read the EC50 as the midpoint of the concentration-response curve. Turning to `COc1ccc(-c2csc(Nc3ccc(C(F)(F)F)cn3)n2)cc1OC` [compound 12, [4-(3,4-dimethoxyphenyl)-thiazol-2-yl]-(5-trifluoromethylpyridin-2-yl)-amine], in [1], the “P-gp substrate status, absorptive vs secretory permeability” value was “greater permeability in the absorptive direction”. Also, the “Dividing ELISA pEC50 (μM) 1st Expt.” value in [2] (setting [8]) came to 5.53. Besides, the “Dividing ELISA pEC50 (μM) 2nd Expt.” value in data set [2] (setting [9]) was determined as 5.69. Moreover, the “Dividing ELISA pEC50 (μM) 3rd Expt.” value in data set [2] (setting [10]) came to 5.58. In addition, the “Dividing ELISA pEC50 (μM) Mean” value in [2] (setting [11]) came to 5.60. The EC50 in [2] (setting [12]) is 2.53 µM; in data set [2] (setting [13]) it was 2.93 µM; in data set [2] (setting [14]), 2.05 µM; in [2] (setting [15]), 2.62 µM; in [2] (setting [16]) it was 2.53 µM; in data set [3] it was greater than 32 µM. Moreover, the EC50 in the data set with N2a-cl3 cells is greater than 32 µM. The “metabolic stability (in words)” value in data set [4] was “excellent stability”. For the same compound, the “Permeability PA→B” value with MDCK-MDR1 cells is 9.4 10^−6 cm/sec. For the same compound, in the data set on MDCK-MDR1 cells, the “Permeability PB→A” value was 8.7 10^−6 cm/sec. In data set [5], the “Microsome stability T1/2” value is listed as 150 min.
The solubility is the concentration that dissolves in the medium under given conditions. Take `Cc1cccc(Nc2nc(-c3ccc(-c4ccnc(OCC#N)c4)cc3)cs2)n1` [IND-0116138]: the “Analiza solubility (μM) pH 1.2” value is listed as greater than 150 μM and the “Analiza solubility (μM) pH 7.4” value is less than 0.4 μM. For the same compound, the solubility in the data set “physchem” (setting [17]) is greater than 150 µM. Further, the solubility in “physchem” (pH 7.4, aqueous buffer) was less than 0.4 µM.
With `COc1ccnc(Nc2nc(-c3cc(-c4ccccc4)no3)cs2)c1` [IND112, (4-Methoxy-pyridin-2-yl)-[4-(3-phenyl-isoxazol-5-yl)-thiazol-2-yl]-amine], the EC50 in the data set with ScN2a-c13 cells is greater than 10 µM; in data set [2] (AMT analogs tested for potency) it was 0.251 µM; in data set [6], 251 nM.
Take `COc1ccc(-c2csc(Nc3ccc4ccccc4n3)n2)cc1OC` [compound 18, [4-(3,4-dimethoxyphenyl)-thiazol-2-yl]-quinolin-2-yl-amine]: the “P-gp substrate status, absorptive vs secretory permeability” value in data set [1] is “greater permeability in the absorptive direction”. For the same compound, the “Dividing ELISA pEC50 (μM) 1st Expt.” value in data set [2] (setting [8]) is listed as 6.31. Moreover, the “Dividing ELISA pEC50 (μM) 2nd Expt.” value in data set [2] (setting [9]) stood at 6.47. For the same compound, the “Dividing ELISA pEC50 (μM) 3rd Expt.” value in data set [2] (setting [10]) was 6.34. In addition, the “Dividing ELISA pEC50 (μM) Mean” value in data set [2] (setting [11]) is 6.38. Further, the half-maximal effective concentration (EC50) in data set [2] (setting [12]) was 0.43 µM; in data set [2] (setting [13]), 0.486 µM; in [2] (setting [14]), 0.34 µM; in data set [2] (setting [15]), 0.453 µM; in [2] (setting [16]) it was 0.426 µM; in data set [3], greater than 32 µM. The EC50 in the data set with N2a-cl3 cells was greater than 32 µM. Further, the “metabolic stability (in words)” value in data set [4] was “excellent stability”. In addition, the “Permeability PA→B” value in the data set with MDCK-MDR1 cells was 9.2 10^−6 cm/sec. Also, in the data set on MDCK-MDR1 cells, the “Permeability PB→A” value is 8.9 10^−6 cm/sec. Besides, the “Microsome stability T1/2” value in [5] was 69 min.
Take `Cc1cccc(Nc2nc(-c3ccc(-c4ccnc(OC(C)C)c4)cc3)cs2)n1` [IND-0116096]: the “Analiza solubility (μM) pH 1.2” value is on record as greater than 150 μM. Also, the solubility in the data set “physchem” (setting [17]) is greater than 150 µM. In “physchem” (pH 7.4, aqueous buffer), the solubility stood at 3.1 µM (≈ 1.25 µg/mL).
Take `COc1ccc(-c2csc(Nc3cc4ccccc4cn3)n2)cc1OC` [compound 17, [4-(3,4-dimethoxyphenyl)-thiazol-2-yl]isoquinolin-3-yl-amine]: the “P-gp substrate status, absorptive vs secretory permeability” value in data set [1] was “greater permeability in the absorptive direction”. Further, the 50% effective concentration (EC50) is 0.101 µM in data set [2] (setting [13]), greater than 32 µM in data set [3] and greater than 32 µM in the data set on N2a-cl3 cells. In addition, the “metabolic stability (in words)” value in data set [4] is “excellent stability”. Also, in data set [5], the “Microsome stability T1/2” value stood at 83 min.
As for `COc1ccc(Nc2nc(-c3cc(-c4ccccc4)no3)cs2)nc1` [IND120, (5-Methoxy-pyridin-2-yl)-[4-(3-phenyl-isoxazol-5-yl)-thiazol-2-yl]-amine], the concentration giving a half-maximal response (EC50) in the data set on ScN2a-c13 cells was greater than 10 µM; in data set [2] (AMT analogs tested for potency), 0.229 µM; in data set [6], 229 nM.
What is called melting point is the temperature of the solid-liquid transition. For the compound `Cc1ccc(Nc2nc(-c3c(-c4ccccc4)noc3C)cs2)nc1` [compound 28, [4-(5-Methyl-3-phenylisoxazol-4-yl)-thiazol-2-yl]-(5-methylpyridin-2-yl)-amine], the “P-gp substrate status, absorptive vs secretory permeability” value in data set [1] is reported as “greater permeability in the absorptive direction”. Further, the “Dividing ELISA pEC50 (μM) 1st Expt.” value in data set [2] (setting [8]) stood at 4.52. Moreover, the “Dividing ELISA pEC50 (μM) 2nd Expt.” value in [2] (setting [9]) is 4.82. The “Dividing ELISA pEC50 (μM) 3rd Expt.” value in data set [2] (setting [10]) is listed as greater than 4.5. The half-maximal effective concentration (EC50) in [2] (setting [12]) was greater than 26 µM; in data set [2] (setting [13]), 30 µM; in [2] (setting [14]) it was 15.2 µM; in data set [2] (setting [15]), greater than 32 µM; in [2] (setting [16]), greater than 26 µM; in data set [3], greater than 32 µM. Further, the EC50 in the data set with N2a-cl3 cells was greater than 32 µM. Besides, in data set [7], the melting point lay within 267 to 269 °C. For the same compound, the “Permeability PA→B” value in the data set on MDCK-MDR1 cells is on record as 11.2 10^−6 cm/sec. The “Permeability PB→A” value in the data set on MDCK-MDR1 cells was 8.6 10^−6 cm/sec. Besides, in [5], the “Microsome stability T1/2” value amounted to 19 min.
In the case of `COCCOc1cc(-c2ccc(-c3csc(Nc4cccc(C)n4)n3)cc2)ccn1` [IND-0116099], the “Analiza solubility (μM) pH 7.4” value was less than 0.5 μM. Moreover, in the data set “physchem” (setting [17]), the solubility was 126 µM (≈ 52.5 µg/mL). The compound also displayed a solubility in the data set “physchem” (pH 7.4, aqueous buffer) of less than 0.5 µM.
For `Cc1cccc(Nc2nc(-c3ccc(-c4ccc(OCC#N)nc4)cc3)cs2)n1` [IND-0116165], in that order: less than 0.4 μM, 2.2 µM (≈ 0.879 µg/mL) and less than 0.4 µM.
